Active and inactive are the calls of the source.
Columns and labels:
[1] = biological target: Dual specificity protein phosphatase 3 (Homo sapiens, UniProt P51452); experiment: VHR phosphatase inhibition, dose response, selectivity assay for STEP inhibitor project, biochemical (AID 602374); format: functional; conditions: read-out: IC50_Mean
[2] = biological target: T1, Tyrosine-protein phosphatase non-receptor type 5 (Homo sapiens, UniProt P54829); experiment: PTPN5 enzyme inhibition – biochemical, fluorescence intensity, uHTS hits, confirmation (AID 602372); format: functional; conditions: read-out: IC50_Mean
T1 sequence (P54829 whole entry): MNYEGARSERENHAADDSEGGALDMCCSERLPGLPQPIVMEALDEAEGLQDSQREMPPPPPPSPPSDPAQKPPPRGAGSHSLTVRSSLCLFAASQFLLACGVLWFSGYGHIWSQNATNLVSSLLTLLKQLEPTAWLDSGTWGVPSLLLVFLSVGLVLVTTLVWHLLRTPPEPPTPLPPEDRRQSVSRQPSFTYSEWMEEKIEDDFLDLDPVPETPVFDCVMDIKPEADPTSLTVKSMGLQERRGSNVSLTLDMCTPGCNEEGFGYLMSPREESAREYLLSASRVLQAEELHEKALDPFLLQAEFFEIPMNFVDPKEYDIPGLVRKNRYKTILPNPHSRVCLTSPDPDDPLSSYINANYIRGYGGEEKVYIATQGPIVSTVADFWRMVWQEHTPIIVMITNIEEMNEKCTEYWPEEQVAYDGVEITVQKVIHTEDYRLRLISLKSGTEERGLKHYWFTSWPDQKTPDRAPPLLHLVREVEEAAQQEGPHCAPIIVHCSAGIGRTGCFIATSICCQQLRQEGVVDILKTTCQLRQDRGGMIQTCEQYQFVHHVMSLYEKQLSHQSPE

[3] = biological target: T2, Tyrosine-protein phosphatase non-receptor type 22 (Homo sapiens, UniProt Q9Y2R2); experiment: lymphoid phosphatase LYP inhibitors – biochemical, selectivity assay for STEP inhibitor project, dose response (AID 624241); format: functional
T2 sequence (Q9Y2R2 whole entry): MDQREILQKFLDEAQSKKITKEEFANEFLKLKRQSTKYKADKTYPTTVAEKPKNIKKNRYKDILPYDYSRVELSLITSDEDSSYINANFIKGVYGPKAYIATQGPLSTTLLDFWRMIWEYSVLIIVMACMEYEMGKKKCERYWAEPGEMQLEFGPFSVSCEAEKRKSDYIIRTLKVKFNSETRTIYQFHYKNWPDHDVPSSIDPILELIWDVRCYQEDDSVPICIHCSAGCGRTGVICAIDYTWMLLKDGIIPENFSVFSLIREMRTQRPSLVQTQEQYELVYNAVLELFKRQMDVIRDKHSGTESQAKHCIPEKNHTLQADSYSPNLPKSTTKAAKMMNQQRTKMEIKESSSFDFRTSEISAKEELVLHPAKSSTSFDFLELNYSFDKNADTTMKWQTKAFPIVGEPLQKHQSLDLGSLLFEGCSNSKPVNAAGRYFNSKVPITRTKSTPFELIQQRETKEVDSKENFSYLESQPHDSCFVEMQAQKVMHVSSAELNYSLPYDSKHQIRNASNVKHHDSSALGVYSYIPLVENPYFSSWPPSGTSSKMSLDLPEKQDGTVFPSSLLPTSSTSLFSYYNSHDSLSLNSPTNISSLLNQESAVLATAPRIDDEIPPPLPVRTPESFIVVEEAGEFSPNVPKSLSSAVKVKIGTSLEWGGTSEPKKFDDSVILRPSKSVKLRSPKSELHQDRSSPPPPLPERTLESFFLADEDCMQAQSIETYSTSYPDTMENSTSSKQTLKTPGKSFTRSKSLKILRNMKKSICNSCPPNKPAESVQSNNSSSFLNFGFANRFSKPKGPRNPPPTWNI

[4] = biological target: T3, Tyrosine-protein phosphatase non-receptor type 11 (Homo sapiens, UniProt Q06124); experiment: PTPN11 enzyme inhibitors – biochemical, selectivity assay for STEP inhibitor project, dose response (AID 602367); format: functional; conditions: read-out: IC50_Mean
T3 sequence (Q06124 whole entry): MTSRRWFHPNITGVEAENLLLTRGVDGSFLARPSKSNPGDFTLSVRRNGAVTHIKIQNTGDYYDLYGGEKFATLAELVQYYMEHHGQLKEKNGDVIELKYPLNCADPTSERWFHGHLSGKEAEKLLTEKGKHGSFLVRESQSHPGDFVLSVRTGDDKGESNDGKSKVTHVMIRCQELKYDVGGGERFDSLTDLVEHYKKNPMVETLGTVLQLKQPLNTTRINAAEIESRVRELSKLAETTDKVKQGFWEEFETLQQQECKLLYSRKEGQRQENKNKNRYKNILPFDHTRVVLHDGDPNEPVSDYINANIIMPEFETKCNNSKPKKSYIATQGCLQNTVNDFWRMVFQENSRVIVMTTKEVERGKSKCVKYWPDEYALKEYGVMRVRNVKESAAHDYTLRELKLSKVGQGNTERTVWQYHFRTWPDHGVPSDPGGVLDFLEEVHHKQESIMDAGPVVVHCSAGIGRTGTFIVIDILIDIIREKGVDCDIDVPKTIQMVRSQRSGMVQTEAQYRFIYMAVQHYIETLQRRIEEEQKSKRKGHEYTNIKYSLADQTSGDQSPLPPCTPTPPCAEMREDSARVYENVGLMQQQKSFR

[5] = biological target: T4, Short transient receptor potential channel 4 (Mus musculus, UniProt Q9QUQ5); experiment: calcium entry via TRPC4 opening agents – cell-based, HEK293 TRPC4/mu-opioid, Fluo-4 calcium, dose response (AID 434937); format: functional
T4 sequence (Q9QUQ5 whole entry): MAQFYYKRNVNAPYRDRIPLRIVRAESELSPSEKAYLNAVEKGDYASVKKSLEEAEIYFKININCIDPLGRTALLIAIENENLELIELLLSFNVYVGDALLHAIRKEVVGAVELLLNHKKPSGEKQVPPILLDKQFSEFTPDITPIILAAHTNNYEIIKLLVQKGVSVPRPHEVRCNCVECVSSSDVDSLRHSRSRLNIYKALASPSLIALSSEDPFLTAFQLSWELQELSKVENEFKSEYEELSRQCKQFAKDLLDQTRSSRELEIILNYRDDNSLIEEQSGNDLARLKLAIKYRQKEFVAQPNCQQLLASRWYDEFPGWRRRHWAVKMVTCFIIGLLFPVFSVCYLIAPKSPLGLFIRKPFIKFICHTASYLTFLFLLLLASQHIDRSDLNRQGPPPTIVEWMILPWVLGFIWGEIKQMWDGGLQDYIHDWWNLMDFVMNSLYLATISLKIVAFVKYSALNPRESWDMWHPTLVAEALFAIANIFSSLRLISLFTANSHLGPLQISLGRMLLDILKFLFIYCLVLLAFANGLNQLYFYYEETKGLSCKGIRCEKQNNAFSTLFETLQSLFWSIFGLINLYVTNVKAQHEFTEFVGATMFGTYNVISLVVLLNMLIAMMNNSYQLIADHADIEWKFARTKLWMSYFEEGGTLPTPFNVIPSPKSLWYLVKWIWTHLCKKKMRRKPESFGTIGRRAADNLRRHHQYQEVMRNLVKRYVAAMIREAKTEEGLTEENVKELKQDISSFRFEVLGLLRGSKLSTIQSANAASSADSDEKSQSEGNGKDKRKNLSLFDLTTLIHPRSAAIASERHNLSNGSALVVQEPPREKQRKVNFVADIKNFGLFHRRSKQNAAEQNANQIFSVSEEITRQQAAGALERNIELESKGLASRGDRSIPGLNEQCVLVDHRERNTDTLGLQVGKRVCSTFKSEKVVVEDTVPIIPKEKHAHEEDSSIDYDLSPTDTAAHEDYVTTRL

cells [6] = format: functional, cell-based
[7] = biological target: T5, Trace amine-associated receptor 1 (Homo sapiens, UniProt Q96RJ0); experiment: Fluorescence-based cell-based high throughput dose response assay to identify agonists of the human trace amine associated receptor 1 (TAAR1).; format: functional
T5 sequence (Q96RJ0 whole entry): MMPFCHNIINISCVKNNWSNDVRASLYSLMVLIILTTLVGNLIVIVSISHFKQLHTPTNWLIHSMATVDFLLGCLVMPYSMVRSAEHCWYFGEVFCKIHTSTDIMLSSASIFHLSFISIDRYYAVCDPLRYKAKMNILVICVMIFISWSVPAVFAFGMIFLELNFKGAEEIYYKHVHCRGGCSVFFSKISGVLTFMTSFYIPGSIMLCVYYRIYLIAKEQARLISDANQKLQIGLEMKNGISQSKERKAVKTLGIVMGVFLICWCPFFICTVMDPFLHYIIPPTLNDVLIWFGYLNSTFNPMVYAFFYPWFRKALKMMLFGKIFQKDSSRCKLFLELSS

[8] = biological target: T5, Trace amine-associated receptor 1; experiment: Counterscreen for agonists of the human trace amine associated receptor 1 (hTAAR1): Fluorescence-based cell-based high throughput dose response assay to identify hTAAR1 agonist that also desensitize TAAR1 receptor response.; format: functional
cells [9] = format: functional, cell-based; remark: listed apart in the source
[10] = biological target: Long-chain-fatty-acid--AMP ligase FadD28 (Mycobacterium tuberculosis, UniProt P9WQ59); experiment: Fluorescence polarization aasay to screen for inhibitors that compete for the binding of FadD28 to a bisubstrate Measured in Biochemical System Using Plate Reader - 2147-01_Inhibitor_Dose_CherryPick_Activity.; format: functional, Mycobacterium tuberculosis H37Rv
H9c2 = experiment: cells; format: functional, cell-based; conditions: Rattus norvegicus, H9c2, Myocardium;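 further: confirmatory concentration-response retest of ultra-high-throughput screening hits for modulation of myocardial damage; cell death induced by hydrogen peroxide oxidative stress; compound pretreatment for 60 min then peroxide exposure for 2 h; potency is for protecting the cells against peroxide damage rather than for killing them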
cells [11] = format: functional, cell-based; conditions: HEK-CNG
Galanin receptor type 3 = Galanin receptor type 3 (Homo sapiens, UniProt O60755); experiment: Fluorescence-based cell-based primary high throughput dose response assay to identify antagonists of the Galanin Receptor 3 (GalR3).; format: functional
cells [12] = experiment: cells
Major prion protein = Major prion protein (Homo sapiens, UniProt P04156); format: functional, cell-based
Beta-lactamase [13] = biological target: T6, Beta-lactamase (Pseudomonas aeruginosa, UniProt Q79MP6); experiment: inhibition of IMP-1 beta-lactamase activity – biochemical, epi-absorbance, selectivity assay for VIM-2 inhibitor project, dose response (AID 1920)
Beta-lactamase [14] = biological target: T6, Beta-lactamase; experiment: […] counterscreen for selective VIM-2 inhibitors: dose response biochemical high throughput screening assay to identify inhibitors of IMP-1 metallo-beta-lactamase.
Beta-lactamase [15] = biological target: Beta-lactamase (Salmonella choleraesuis (strain SC-B67), UniProt Q5J463); experiment: Epi-absorbance-based counterscreen for selective VIM-2 inhibitors: dose response biochemical high throughput screening assay to identify inhibitors of TEM-1 serine-beta-lactamase.
[16] = biological target: T7, Methionyl-tRNA synthetase, putative (Trypanosoma brucei brucei, UniProt Q38C91); format: functional, Trypanosoma brucei brucei strain 927/4 GUTat10.1
T7 sequence (Q38C91 whole entry): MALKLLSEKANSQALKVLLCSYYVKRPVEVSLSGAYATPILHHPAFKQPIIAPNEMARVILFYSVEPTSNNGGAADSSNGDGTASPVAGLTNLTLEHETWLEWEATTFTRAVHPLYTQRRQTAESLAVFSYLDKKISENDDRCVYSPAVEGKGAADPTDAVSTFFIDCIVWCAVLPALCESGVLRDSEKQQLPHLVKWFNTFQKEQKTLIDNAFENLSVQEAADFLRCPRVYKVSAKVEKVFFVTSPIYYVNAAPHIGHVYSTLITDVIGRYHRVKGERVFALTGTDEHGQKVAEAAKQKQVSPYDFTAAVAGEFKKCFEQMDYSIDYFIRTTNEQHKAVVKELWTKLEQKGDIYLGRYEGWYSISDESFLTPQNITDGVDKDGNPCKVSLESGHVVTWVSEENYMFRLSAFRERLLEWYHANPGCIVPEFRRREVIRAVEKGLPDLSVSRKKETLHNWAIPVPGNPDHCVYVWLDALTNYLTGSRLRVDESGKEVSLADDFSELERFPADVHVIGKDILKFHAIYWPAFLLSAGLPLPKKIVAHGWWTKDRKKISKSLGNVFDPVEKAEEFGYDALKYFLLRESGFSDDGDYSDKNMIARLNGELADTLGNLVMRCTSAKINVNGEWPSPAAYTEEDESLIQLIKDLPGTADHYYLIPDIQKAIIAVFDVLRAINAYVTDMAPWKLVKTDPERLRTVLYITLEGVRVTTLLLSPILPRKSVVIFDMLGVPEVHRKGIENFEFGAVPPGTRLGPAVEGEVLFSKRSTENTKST

[17] = Counterscreen for inhibitors of Trypanosoma brucei methionyl tRNA synthetase (MetRS): Luminescence-based cell-based high throughput dose response assay to identify compounds that are cytotoxic to Jurkat human T lymphocyte cells.; format: functional
[18] = biological target: T7, Methionyl-tRNA synthetase, putative; format: functional, Trypanosoma brucei brucei strain 927/4 GUTat10.1; remark: listed apart in the source

SMILES: COc1ccc(NC(S)=NCCN2CCC(C)CC2)cc1Cl
- IC50 [1]: 0.72 µM (active)
- IC50 [2]: 11.2 µM (active)
- IC50 [3]: 43.9 µM (inactive)
- IC50 [4]: 0.999 µM (active)

SMILES: CCOC(=O)C1CCCN(C(c2ccccn2)c2c(C)[nH]c3ccccc23)C1 (configuration not stated)
- EC50 [5]: 5.31 µM (active)
- IC50 (cells [6]): > 29.9 µM (inactive)
- EC50 [7]: 22.3 µM (inactive)
- IC50 [8]: 2.65 µM (active)
- EC50 (cells [9]): > 29.9 µM (inactive)

SMILES: Cc1noc(NS(=O)(=O)c2ccc(NC(=O)/C=C/c3ccc(C(C)C)cc3)cc2)c1C
- AC50 [10]: 30.2 µM (active)

SMILES: Oc1nc2cccnc2c2ccsc12
- IC50 (H9c2): > 79 µM (inactive)
- EC50 (cells [11]): > 29.9 µM (inactive)
- IC50 (Galanin receptor type 3): > 29.9 µM (inactive)

SMILES: O=[N+]([O-])C(=C1SCCS1)C(=C(Cl)Cl)N1CCCCC1
- AC50 [10]: > 100 µM (inactive)

SMILES: O=C(O)c1ccccc1Sc1ncnc2sc3c(c12)CCC3
- IC50 (cells [12]): > 138 µM (inactive)
- IC50 (Major prion protein): 7.05 µM (active)
- IC50 (Beta-lactamase [13]): > 59.6 µM (inactive)
- IC50 (Beta-lactamase [14]): > 59.6 µM (inactive)
- IC50 (Beta-lactamase [15]): > 59.6 µM (inactive)

SMILES: COc1ccc(/C=C2\SC(=O)N=C2N)cc1
- IC50 [16]: 119 µM (inactive)
- IC50 [17]: 83.4 µM (inactive)
- IC50 [18]: 7.57 µM (active)

SMILES: OC(c1ccc(Cl)c(Cl)c1)c1nc(-c2ccc(Cl)cc2)c[nH]1 (configuration not stated)
- IC50 [16]: 7.79 µM (active)
- IC50 [17]: 51.5 µM (inactive)
- IC50 [18]: 4.26 µM (active)

SMILES: COC(=O)[C@]12CCCCC=C1N(Cc1cccc3ccccc13)C(=O)[C@H](CC(=O)NCc1ccc(OC)c(OC)c1)C2
- EC50 (cells [11]): > 29.9 µM (inactive)
- IC50 (Galanin receptor type 3): > 29.9 µM (inactive)

— ChEMBL document CHEMBL1201862, “PubChem BioAssay data set” (2004)
